Laboratory results as given in article PMC6987146, “Potent inhibition of HIV replication in primary human cells by novel synthetic polyketides inspired by Aureothin” (Scientific Reports, 2020).

Tests used:
[1] = tested on: HIV-1 transcripts (unspliced, singly spliced, multiply spliced, all); test: Relative levels of HIV-1 transcript classes by qRT-PCR in LC5-RIC cells; type: cell-based; conditions: HIV-1LAI, 48 h, vs untreated
Method: LC5-RIC cells were plated, treated with compounds and inoculated with virus as described for Alu-PCR above. Cells were then harvested and RNA was extracted using the RNeasy Mini Kit (QIAGEN), according to the manufacturer’s protocol. For cDNA synthesis, 1 µg of total RNA was reverse transcribed by SuperScript II reverse transcriptase (Invitrogen) according to manufacturer’s recommendations. qRT-PCR was performed with the Roche Light Cycler® 480II 96 (Version 1.5.0.39), using LightCycler® 480 SYBR Green I Mastermix (Roche). Quantitative PCR for HIV-1 transcripts was performed with primers specific for unspliced, singly spliced or multiply spliced HIV-1 transcripts as well as for ‘all HIV transcripts’; RNA Polymerase II transcripts were analysed as internal reference gene. Primer sequences are given in Supplementary Methods and binding sites shown in Supplementary Fig. S3. Data was analysed with the second derivative maximum method. The relative amount of HIV-1 transcripts in treated versus untreated samples was calculated by the 2^(−ΔΔCt) method, using RNA polymerase II as reference gene.
The following primers were used to perform the qRT-PCR analysis (primer sequences 5’ ? 3’): multiply spliced, forward: ATGGAGCCAGTAGATCCTAG, reverse: AGT CTC TCA AGC GGT GGT ^1; singly spliced, forward: GGc GGC GAC TGG AAG AGG C, reverse: CTATGATTACTATGGACCACA ^1; unspliced, forward: CTG AAG CGC GCA CGG CAA, reverse: GACGCTCTCGCACCCATCTC ^1; ‘all HIV transcripts’, forward: GTGTGTGGTAGATCCACAGATCAAGG, reverse: CCAGTCACACCTCAGGTACCTTTAAGACC ^2; RNA polymerase II, forward: GCA CCA CGT CCA ATG ACA T, reverse: GTG CGG CTG CTT CCA TAA ^3. See primer binding sites in different HIV transcripts in Fig. S1.

[2] = tested on: integrated proviral HIV-1 DNA; test: Integrated proviral HIV-1 DNA by Alu-PCR in LC5-RIC cells; type: cell-based; conditions: HIV-1LAI, 48 h, concentrations >2x IC90, normalized to DMSO
Method: Quantitative analysis of integrated copies of HIV proviral DNA by Alu-PCR was performed essentially as described in[46]. Briefly, LC5-RIC cells seeded at a density of 100,000 cells per well in 12-well plates and incubated for 24 h were exposed to test compounds and HIV-1LAI virus inoculum at an MOI of 0.5 and incubated for further 48 h at 37 °C, 5% CO2. Subsequently, cells were harvested and genomic DNA (gDNA) was extracted using the QIAamp DNA Mini Kit (QIAGEN) according to the manufacturer’s protocol. The relative amount of integrated proviral HIV-1 DNA was determined by two-step Alu-PCR[46]. The relative amounts of integrated proviral HIV-1 DNA in treated versus untreated samples were calculated by the 2^(−ΔΔCt) method, with ΔCT values representing CT (HIV) - CT (β-globin) for each sample and ΔΔCT values representing values of treated samples normalized to untreated samples.

[3] = CellTiter-Glo 2.0 cell viability assay in PBMC; type: cell-based, human; conditions: human
Method: (§1) The following assays were used to profile cell safety of compound treatment in HIV-exposed cultures (LC5-RIC or PBMC): (1) CellTox^TM Green Cytotoxicity Assay, Promega, measures binding of a fluorescent dye to DNA of cells with impaired membrane integrity; (2) CellTiter-Glo® 2.0 Assay, Promega, which measures the amount of ATP in viable cells after lysis using an assay with luminescence read-out. Cells were plated into black 96-well plates followed by overnight incubation at 37 °C, 5% CO2. Compounds dissolved in DMSO were screened at multiple concentrations from 0.6 to 10,000 nM at a final DMSO concentration of 0.04% followed by additional 48 h incubation. Both assays were performed according to manufacturer’s recommendations and consecutively in the above mentioned order. Cells were washed once with PBS between the assays.

[4] = tested on: DsRed1 reporter gene activated by early viral gene expression; test: DsRed1 reporter gene expression in HIV-exposed LC5-RIC cultures (first step of two-step assay); type: cell-based, HIV-1; set-up: unit not given here; conditions: 50 nM, 48 h
Text: The reporter gene in LC5-RIC cells contains the HIV promoter and other regulatory elements of HIV expression and is activated by early viral gene expression during HIV infection. Use of LC5-RIC cells in a previously described two-step assay format allows comparison of the effect of compound treatment on expression of the DsRed1 reporter gene and infectious virus production in the same cultures. As reference compound, we used an experimental inhibitor of HIV transcription called Flavopiridol. Flavopiridol blocks pTEFb, an essential co-factor for Tat-dependent activation[18],[19]. […]
Figure 2 Comparison of effects of compound #7 treatment on reporter gene expression and production of infectious virus in LC5-RIC cultures. […] Effects of compound treatment on reporter gene expression and production of infectious virus were determined in LC5-RIC cultures exposed to virus inoculum in the presence or absence of compounds for 48 h. Fluorescent signals of these primary cultures were measured to determine effects on reporter gene expression. Effects on infectious virus production were determined by transferring aliquots of the supernatants of primary cultures to uninfected LC5-RIC cells, and fluorescent signals determined in secondary plates 72 h after transfer. […]

[5] = CellTiter-Glo 2.0 cell viability assay in LC5-RIC cells; type: cell-based; conditions: human; Table S2; CellTiter-Glo 2.0; mean ± SD
Method: as §1

Compound	relative levels of multiply spliced HIV transcripts [1]	reduction of levels of integrated proviral DNA [2]	CC50 at 48 h [3] [µM]	Reporter gene expression, median (fluorescent signal normalized to untreated virus-exposed cultures) [4]	CC50 at 48 h [5] [µM]	levels of singly spliced HIV transcripts [1]	levels of unspliced HIV transcripts [1]	overall abundance of HIV mRNAs (all transcripts primers) [1]	CC50 at 48 h ([3]; CellTiter-Glo 2.0, PBMC, read-out: Cell viability in PBMC, CC50) [µM]
CN1CC[C@H](c2c(O)cc(O)c3c(=O)cc(-c4ccccc4Cl)oc23)[C@H](O)C1 [Flavopiridol]	much stronger inhibitory effect on levels of multiply spliced transcripts than compound #7	did not reveal reduction of proviral DNA levels	0.12 ± 0.0135	9.33	0.1274 ± 0.00094				
COc1oc(C2C/C(=C/C(C)=C/c3ccc(C(F)(F)F)cc3)CO2)c(C)c(=O)c1C (stereo not shown) [compound #7]	did not reduce relative levels of multiply spliced transcripts	< 20%		55.3	> 10	strongly diminished	strongly diminished	reduced the overall abundance of HIV mRNAs	> 10
